Read-outs that look alike come from different tables or passages of the source. No end group written: not given here.
Assays:
[1] = tested on: Leishmania donovani axenic amastigotes; conditions: 50 μM miltefosine control; cited from earlier work
Method: (§1) Axenic amastigotes were differentiated as described previously ([69]); briefly, transgenic L. donovani promastigotes expressing mCherry were differentiated by pH and temperature shifts. Amastigotes were seeded into 96-well plates at 5 × 10^6 cells/mL and incubated for 48 h in the presence of decreasing drug concentrations, starting at 20 μM, along with the appropriate solvent controls. Fluorescence was monitored (587-nm excitation/610-nm emission) over 48 h using a FlexStation 3 benchtop multimode reader (Molecular Devices). At 50 μM miltefosine, 99% parasite inhibition is observed. Thus, chan ...

[2] = tested on: Leishmania donovani intracellular amastigotes; conditions: 50 μM miltefosine control; cited from earlier work
Method: Transgenic L. donovani promastigotes constitutively expressing mCherry and THP-1 macrophages were cultured as described above. Metacyclic promastigotes were isolated using a Ficoll-400 density gradient as previously described ([70]). Differentiated macrophages were exposed to parasites for 4 h at a multiplicity of infection (MOI) of 10 parasites:1 macrophage. After 4 h, the macrophages were washed thoroughly with 1× phosphate-buffered saline (PBS) (pH 7.4) and incubated overnight at 37°C with 5% CO2. Macrophages were transferred to 96-well plates at 5 × 10^6 cells/mL and exposed to antimicrobi ...

[3] = tested on: Leishmania donovani axenic amastigotes
Method: We utilized a previously developed high-throughput screening assay using transgenic axenic amastigotes expressing a red fluorescent protein, mCherry. Changes in mCherry fluorescence were normalized to 50 μM miltefosine in order to quantify parasite inhibition ([52]). In total, 5 scaffold 25-mer peptides and 475 synthetic 25-mer peptide variants were screened (Fig. 1). […] The assay was repeated, and the average percent parasite killing was determined.
Axenic amastigotes were differentiated as described previously ([69]).
as §1, with “[…] Thus, changes in mCherry fluorescence were normalized to the” for “At”, “miltefosine control in order to quantify” for “miltefosine, 99%”, “inhibition. Each assay was performed in triplicate. The IC50 values were calculated by nonlinear regression analysis using GraphPad Prism 9.0 for Windows.” for “inhibition is observed. Thus, chan ...”

[4] = tested on: THP-1 macrophages; test: Cytotoxicity against THP-1 macrophages (CellTiter-Blue); type: cell-based, human
Method: THP-1 (human acute monocytic leukemia-derived) host macrophages were cultured in RPMI 1640 supplemented with 10% FCS and a penicillin-streptomycin antibiotic solution (10,000 U/mL penicillin, 10,000 μg/mL streptomycin) at 37°C with 5% CO2. THP-1 cells were incubated with 0.25 μM phorbol 12-myristate […] (PMA) for 48 h to differentiate into mature macrophages. Differentiated macrophages were seeded into 96-well plates at 5 × 10^6 cells/mL and incubated for 48 h in the presence of 20 μM antimicrobial peptides along with the appropriate solvent controls. Cell viability assays were conducted using CellTiter-Blue (Promega), based on resazurin reduction. After the 48-h incubation period, CellTiter-Blue reagent was added to cells for 4 h at 37°C, and fluorescence was measured (555-nm excitation/580-nm emission) using a FlexStation 3 benchtop multimode reader (Molecular Devices). Each assay was performed in triplicate. The CC50 values were calculated by nonlinear regression analysis using GraphPad Prism 9.0 for Windows.

[5] = tested on: intracellular amastigotes; conditions: previously shown; cited from earlier work
Excerpt: As Leishmania spp. are obligate intracellular parasites, intracellular amastigote IC50 value determination is necessary to understand the clinical relevance of the 10 antileishmanial peptide drug candidates.

[6] = tested on: axenic amastigotes; conditions: previous data used to set the 20 μM screening concentration; read-out: IC50 of enterocin AS-48 (previous data); cited from earlier work
Method: We utilized a previously developed high-throughput screening assay using transgenic axenic amastigotes expressing a red fluorescent protein, mCherry. Changes in mCherry fluorescence were normalized to 50 μM miltefosine in order to quantify parasite inhibition ([52]). In total, 5 scaffold 25-mer peptides and 475 synthetic 25-mer peptide variants were screened (Fig. 1). […] The assa ... || In this work, we determined the efficacy and cytotoxicity of 480 synthetic, minimal AS-48 bacteriocin homolog peptide variants against L. donovani using phenotypic in vitro fluorometric assays. […] This study illustrates the successful use of rational design using the minimal domain of naturally occurring bacteriocin scaffolds to increase leishmanicidal activity.

[7] = tested on: Leishmania pifanoi axenic amastigotes; conditions: full-length enterocin AS-48; read-out: IC50 against Leishmania pifanoi axenic amastigotes; cited from earlier work
Excerpt: Enterocin AS-48, a class I bacteriocin, has been well characterized and is currently being investigated for use as an antimicrobial drug against a large variety of infectious disease agents ([45]). Enterocin AS-48 is a ribosomally produced, circularized bacteriocin encoded by Enterococcus faecalis subsp. liquefaciens strain S-48, which undergoes head-to-tail macrocyclization as a posttranslational modification ([46]). Efforts to engineer synthetic enterocin AS-48 have been made in order to improve mass production and bioactivity. Previously, segments of the bacteriocin have undergone α-ketoaci ...

[8] = read-out: Axenic amastigotes Mean IC50 ± SD, L. donovani mCherry axenic amastigotes, 48 h, fluorescence normalized to 50 μM miltefosine, highest concentration 20 μM, mean of three replicates
[9] = read-out: Axenic amastigotes Mean IC50 ± SD

## CCCCCCCCCCCCCCCCOP(=O)([O-])OCC[N+](C)(C)C [miltefosine]
[1]
  Parasite inhibition (axenic amastigotes): 99%
[2]
  Intracellular parasite inhibition: 99%

## AGKETIRQYLKNKIKKKWRKAVIAW [Syn-safencin-51]
[3]; [8]
  IC50: 6.36 µM
[4]
  THP-1 macrophage CC50: < 20 µM

## AGAQRLTKELLEYLRKFWKIARKAW [Syn-xiamencin-23]
[3]; [8]
  IC50: 1.14 µM
[4]
  THP-1 macrophage CC50: < 20 µM

## AGKETIRQYWKNKIKKKGRKAVIAW [Syn-safencin-35]
[3]; [8]
  IC50: 0.29 µM
[4]
  THP-1 macrophage CC50: < 20 µM

## AGKETIRQFLKKKIQEKGKIAKRAW [Syn-larvacin-94]
[3]; [8]
  IC50: 18.2 µM
[4]
  THP-1 macrophage CC50: < 20 µM

## AGKETIRQKWKNEIKKKGRKAVIAW [Syn-safencin-39]
[3]; [8]
  IC50: 0.72 µM
[4]
  THP-1 macrophage CC50: < 20 µM

## AGRQALTKYLLEELRKRGKKWFIAW [Syn-xiamencin-36]
[3]; [9]
  IC50: 1.52 µM
[4]
  THP-1 macrophage CC50: < 20 µM

## AGTEKIFNRLKKWINEGKKIAKRAW [Syn-larvacin-32]
[3]; [8]
  IC50: 0.23 µM
[4]
  THP-1 macrophage CC50: < 20 µM

## AGKETIRQFLKKKIQEWKKRATIAW [Syn-larvacin-44]
[3]; [8]
  IC50: 0.47 µM
[4]
  THP-1 macrophage CC50: < 20 µM

## WGKKTIRQYLKNEIKKKGRKAVIAW [Syn-safencin-10]
[3]; [8]
  IC50: 2.97 µM
[4]
  THP-1 macrophage CC50: below 20 μM

## AGAQRLTKELLEYLRKFGKIWRKAW [Syn-xiamencin-39]
[3]; [9]
  IC50: 6.81 µM
[4]
  THP-1 macrophage CC50: < 20 µM

## AWTEKIFQRLKKTIQEGKKIAKRAW [Syn-larvacin-39]
[3]; [8]
  IC50: 1.43 µM
[4]
  THP-1 macrophage CC50: < 20 µM

## AGKETIRKYLKNEIKKKGRKAVIAW [Syn-safencin 6]
[3]; 48 h
  IC50: 0.48 ± 0.07 µM
[4]
  THP-1 macrophage CC50: > 20 µM
[4]; 48 h
  THP-1 macrophage CC50: >20 µM

## AGKEKWRKKLKNEIKKKGRKAVIAW [Syn-safencin-32]
[3]; [8]
  IC50: 4.62 µM
[4]
  THP-1 macrophage CC50: < 20 µM

## AGKKTIRQYLKNEIKKKGRKAVIAW [Syn-safencin 2]
[3]; 48 h
  IC50: 2.42 ± 0.09 µM
[4]
  THP-1 macrophage CC50: > 20 µM
[4]; 48 h
  THP-1 macrophage CC50: >20 µM

## enterocin AS-48
[5]
  Activity against intracellular amastigotes: limited activity
[6]
  IC50: ~20 µM
[7]
  IC50: 10.2 ± 1.2 µM

## AGKETIRWFLKKKIWEGKKRATIAW [Syn-larvacin-52]
[3]; [8]
  IC50: 1.86 µM
[4]
  THP-1 macrophage CC50: < 20 µM

## AGTEKIFQRLKKTIQEWKKIAKRAW [Syn-larvacin-47]
[3]; [8]
  IC50: 1.1 µM
[4]
  THP-1 macrophage CC50: < 20 µM

## AGAQRLWKELLEYLRKFGKIARKAW [Syn-xiamencin-47]
[3]; [9]
  IC50: 2.68 µM
[4]
  THP-1 macrophage CC50: < 20 µM

## AGKETIRQFLKKKIQEKGKRATIWW [Syn-larvacin-65]
[3]; [8]
  IC50: 0.31 µM
[4]
  THP-1 macrophage CC50: < 20 µM

## AGWQRLTLYLKEELRKRGKKAFIAW [Syn-xiamencin-50]
[3]; [9]
  IC50: 3.74 µM
[4]
  THP-1 macrophage CC50: < 20 µM

## AGRQALWLYLKEELRKRGKIAFKAW [Syn-xiamencin-46]
[3]; [9]
  IC50: 11.8 µM
[4]
  THP-1 macrophage CC50: < 20 µM

## AGKETIRQYLKNKWKKKGRKAVIAW [Syn-safencin-43]
[3]; [8]
  IC50: 11.2 µM
[4]
  THP-1 macrophage CC50: < 20 µM

## AGRQWLTLELKEYLRKRGKKAFIAW [Syn-xiamencin-51]
[3]; [8]
  IC50: 3.66 µM
[4]
  THP-1 macrophage CC50: < 20 µM

## AGKETIFQRLKKKIQEKGKRATIAW [Syn-larvacin-3]
[3]; [8]
  IC50: 0.36 µM
[4]
  THP-1 macrophage CC50: below 20 μM

## AGKKTIRQYWKNKIKKKGRKAVIAW [Syn-safencin-36]
[3]; [8]
  IC50: 1.29 µM
[4]
  THP-1 macrophage CC50: < 20 µM

## AGKETIRQFLKKKIQEGKKRATIWW [Syn-larvacin-68]
[3]; [8]
  IC50: 1.31 µM
[4]
  THP-1 macrophage CC50: < 20 µM

## AGKKTIRQYLKNKWKKKGRKAVIAW [Syn-safencin-44]
[3]; [8]
  IC50: 0.63 µM
[4]
  THP-1 macrophage CC50: < 20 µM

## AGKKTIRQYLKNKIKKKWRKAVIAW [Syn-safencin-52]
[3]; [8]
  IC50: 0.58 µM
[4]
  THP-1 macrophage CC50: < 20 µM

## AGRQALTLYLKEELRKRWKIAFKAW [Syn-xiamencin-22]
[3]; [8]
  IC50: 2.21 µM
[4]
  THP-1 macrophage CC50: < 20 µM

## AGKEKIRQYWKNEIKKKGRKAVIAW [Syn-safencin-37]
[3]; [8]
  IC50: 5.21 µM
[4]
  THP-1 macrophage CC50: < 20 µM

## AWKKTIRQYLKNEIKKKGRKAVIAW [Syn-safencin-18]
[3]; [8]
  IC50: 7.96 µM
[4]
  THP-1 macrophage CC50: < 20 µM

## AGKEKIRQFLKKKIQEGKKRATIAW [Syn-larvacin-76]
[3]; [8]
  IC50: 1.58 µM
[4]
  THP-1 macrophage CC50: < 20 µM

## AGTEKIFQRLKKTIQEGKKIAKRAW [Syn-larvacin-7]
[3]; [8]
  IC50: 5.61 µM
[4]
  THP-1 macrophage CC50: below 20 μM

## AGKETIFQRLKKKIQEKWKRATIAW [Syn-larvacin-43]
[3]; [8]
  IC50: 0.22 µM
[4]
  THP-1 macrophage CC50: < 20 µM

## AGKKTIRQYLKNEIKKKGRKAWIAW [Syn-safencin 66]
[3]; 48 h
  IC50: 3.64 ± 0.1 µM
[4]
  THP-1 macrophage CC50: > 20 µM
[4]; 48 h
  THP-1 macrophage CC50: >20 µM

## AGKEKIRQFLKKTIQEKGKRAKIAW [Syn-larvacin-77]
[3]; [8]
  IC50: 10.3 µM
[4]
  THP-1 macrophage CC50: < 20 µM

## AGRQWLTLYLKEELRKRGKIAFKAW [Syn-xiamencin-54]
[3]; [8]
  IC50: 7.79 µM
[4]
  THP-1 macrophage CC50: < 20 µM

## AGKEKIRQYLKNEIKKKGRKWVIAW [Syn-safencin-61]
[3]; [8]
  IC50: 3.56 µM
[4]
  THP-1 macrophage CC50: < 20 µM

## AGKKTIRQYLKNEIKKKGRKAVIWW [Syn-safencin 82]
[3]; 48 h
  IC50: 0.375 ± 0.1 µM
[4]
  THP-1 macrophage CC50: > 20 µM
[4]; 48 h
  THP-1 macrophage CC50: >20 µM

## WGKETIFQRLKKKIQEKGKRATIAW [Syn-larvacin-11]
[3]; [8]
  IC50: 0.66 µM
[4]
  THP-1 macrophage CC50: below 20 μM
